Experiments:
[1] = Therapeutic index, ratio of CC50 for african green monkey Vero E6 cells to EC50 for SARS coronavirus infected in african green monkey Vero E6 cells; type: cell-based; conditions: read-out: Ratio CC50/EC50
[2] = target: Replicase polyprotein 1a (Human coronavirus NL63) (UniProt P0C6U6); experiment: Inhibition of human coronavirus NL63 PLP2 (amino acids 1565 to 1894) expressed in Escherichia coli BL21 (DE3) cells assessed as reduction of AMC release using Z-RLRGG-AMC as substrate at 100 uM by multimode plate reader analysis
[3] = target: T1, Sentrin-specific protease 8 (Homo sapiens, UniProt Q96LD8); experiment: Inhibition of human DEN1 using Nedd8-EKL as substrate
T1 sequence (Q96LD8 whole entry): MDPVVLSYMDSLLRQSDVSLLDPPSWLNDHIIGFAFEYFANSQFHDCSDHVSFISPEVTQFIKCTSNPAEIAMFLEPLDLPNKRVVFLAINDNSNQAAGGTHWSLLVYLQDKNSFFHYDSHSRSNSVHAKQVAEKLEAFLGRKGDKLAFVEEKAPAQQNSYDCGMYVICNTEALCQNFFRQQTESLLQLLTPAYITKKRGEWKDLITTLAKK

[4] = target: T2, Caspase-3 (Homo sapiens, UniProt P42574); experiment: Inhibition of human caspase-3 using fluorogenic peptide as substrate
T2 sequence (P42574 whole entry): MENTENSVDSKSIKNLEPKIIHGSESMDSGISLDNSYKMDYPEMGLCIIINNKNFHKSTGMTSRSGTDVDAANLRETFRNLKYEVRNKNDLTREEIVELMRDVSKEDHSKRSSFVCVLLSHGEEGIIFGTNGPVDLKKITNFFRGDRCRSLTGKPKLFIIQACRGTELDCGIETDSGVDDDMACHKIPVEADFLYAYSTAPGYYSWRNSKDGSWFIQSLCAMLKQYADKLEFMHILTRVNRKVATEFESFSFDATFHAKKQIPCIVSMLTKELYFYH

[5] = target: T3, Ubiquitin carboxyl-terminal hydrolase isozyme L1 (Homo sapiens, UniProt P09936); experiment: Inhibition of human UCHL1
T3 sequence (P09936 whole entry): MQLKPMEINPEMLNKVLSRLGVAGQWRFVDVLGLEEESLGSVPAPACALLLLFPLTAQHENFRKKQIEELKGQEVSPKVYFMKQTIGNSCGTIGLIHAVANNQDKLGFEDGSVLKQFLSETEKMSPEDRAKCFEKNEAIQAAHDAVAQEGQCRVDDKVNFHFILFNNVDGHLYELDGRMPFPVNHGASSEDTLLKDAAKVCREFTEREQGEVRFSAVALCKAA

[6] = target: T4, Caspase-3 (Homo sapiens) (UniProt P42574); experiment: Inhibition of human caspase-3 using fluorogenic peptide as substrate at 31 uM
T4 sequence (whole entry): T2 sequence (P42574 whole entry)

[7] = Cytotoxicity against african green monkey Vero E6 cells assessed as cell viability after 48 hrs by Cell Titer-Glo luminescent assay; type: cell-based; conditions: chlorocebus sabaeus
[8] = target: T5, Ubiquitin carboxyl-terminal hydrolase 2 (Homo sapiens) (UniProt O75604); experiment: Inhibition of human USP2 using Ub-rhodamine 110 as substrate at 31 uM
T5 sequence (whole entry): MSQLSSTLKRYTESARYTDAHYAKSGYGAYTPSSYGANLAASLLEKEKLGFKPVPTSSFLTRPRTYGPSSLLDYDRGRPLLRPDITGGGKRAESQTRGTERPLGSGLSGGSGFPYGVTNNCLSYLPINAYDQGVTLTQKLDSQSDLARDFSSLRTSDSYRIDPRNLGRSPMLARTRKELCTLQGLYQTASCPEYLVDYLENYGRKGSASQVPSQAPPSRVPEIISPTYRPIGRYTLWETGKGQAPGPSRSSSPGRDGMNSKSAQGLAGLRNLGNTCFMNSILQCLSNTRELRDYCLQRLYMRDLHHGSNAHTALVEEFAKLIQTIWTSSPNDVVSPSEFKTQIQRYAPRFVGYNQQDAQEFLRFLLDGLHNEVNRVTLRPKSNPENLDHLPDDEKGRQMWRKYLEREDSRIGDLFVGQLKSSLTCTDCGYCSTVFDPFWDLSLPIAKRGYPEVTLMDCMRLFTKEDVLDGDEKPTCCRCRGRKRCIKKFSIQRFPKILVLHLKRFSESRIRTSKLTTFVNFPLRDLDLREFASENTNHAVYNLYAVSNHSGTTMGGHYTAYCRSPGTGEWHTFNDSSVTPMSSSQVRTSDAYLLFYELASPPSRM

[9] = test system: SARS-CoV; experiment: Antiviral activity against SARS coronavirus infected in african green monkey Vero E6 cells assessed as cell viability after 48 hrs by Cell Titer-Glo luminescent assay; type: functional, organism-based; conditions: Severe acute respiratory syndrome-related coronavirus
[10] = target: T6, Ubiquitin carboxyl-terminal hydrolase 8 (Homo sapiens, UniProt P40818); experiment: Inhibition of human USP8 using Ub-rhodamine 110 as substrate
T6 sequence (P40818 whole entry): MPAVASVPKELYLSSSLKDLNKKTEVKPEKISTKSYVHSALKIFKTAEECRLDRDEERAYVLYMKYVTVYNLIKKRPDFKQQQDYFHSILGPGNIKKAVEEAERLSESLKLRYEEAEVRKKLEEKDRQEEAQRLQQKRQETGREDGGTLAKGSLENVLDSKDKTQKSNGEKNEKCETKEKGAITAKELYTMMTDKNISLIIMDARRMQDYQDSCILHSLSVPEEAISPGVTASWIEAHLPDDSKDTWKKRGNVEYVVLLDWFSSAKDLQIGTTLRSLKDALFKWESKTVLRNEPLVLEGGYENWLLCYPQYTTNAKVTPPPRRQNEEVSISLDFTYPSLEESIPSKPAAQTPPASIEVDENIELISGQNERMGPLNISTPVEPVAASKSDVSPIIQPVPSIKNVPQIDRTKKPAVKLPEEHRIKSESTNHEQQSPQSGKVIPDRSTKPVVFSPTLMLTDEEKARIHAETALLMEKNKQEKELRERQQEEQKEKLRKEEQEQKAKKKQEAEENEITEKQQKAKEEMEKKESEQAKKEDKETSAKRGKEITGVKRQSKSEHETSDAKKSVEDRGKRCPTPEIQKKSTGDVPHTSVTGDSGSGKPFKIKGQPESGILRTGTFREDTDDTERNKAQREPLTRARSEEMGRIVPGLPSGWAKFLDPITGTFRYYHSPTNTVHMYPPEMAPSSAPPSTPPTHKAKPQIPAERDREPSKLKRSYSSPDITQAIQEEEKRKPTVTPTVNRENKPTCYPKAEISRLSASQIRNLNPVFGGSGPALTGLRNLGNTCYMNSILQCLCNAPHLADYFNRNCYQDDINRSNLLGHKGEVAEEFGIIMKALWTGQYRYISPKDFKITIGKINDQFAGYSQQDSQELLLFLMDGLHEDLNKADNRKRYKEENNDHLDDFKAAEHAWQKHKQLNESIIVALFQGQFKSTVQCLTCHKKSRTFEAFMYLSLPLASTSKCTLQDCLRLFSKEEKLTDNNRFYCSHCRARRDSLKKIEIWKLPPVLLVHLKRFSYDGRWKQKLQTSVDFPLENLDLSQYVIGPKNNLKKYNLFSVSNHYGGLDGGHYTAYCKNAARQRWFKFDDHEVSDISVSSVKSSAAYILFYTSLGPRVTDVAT

Chain of Replicase polyprotein 1a (Human coronavirus NL63) (P0C6U6 whole entry, the tested form may be a part): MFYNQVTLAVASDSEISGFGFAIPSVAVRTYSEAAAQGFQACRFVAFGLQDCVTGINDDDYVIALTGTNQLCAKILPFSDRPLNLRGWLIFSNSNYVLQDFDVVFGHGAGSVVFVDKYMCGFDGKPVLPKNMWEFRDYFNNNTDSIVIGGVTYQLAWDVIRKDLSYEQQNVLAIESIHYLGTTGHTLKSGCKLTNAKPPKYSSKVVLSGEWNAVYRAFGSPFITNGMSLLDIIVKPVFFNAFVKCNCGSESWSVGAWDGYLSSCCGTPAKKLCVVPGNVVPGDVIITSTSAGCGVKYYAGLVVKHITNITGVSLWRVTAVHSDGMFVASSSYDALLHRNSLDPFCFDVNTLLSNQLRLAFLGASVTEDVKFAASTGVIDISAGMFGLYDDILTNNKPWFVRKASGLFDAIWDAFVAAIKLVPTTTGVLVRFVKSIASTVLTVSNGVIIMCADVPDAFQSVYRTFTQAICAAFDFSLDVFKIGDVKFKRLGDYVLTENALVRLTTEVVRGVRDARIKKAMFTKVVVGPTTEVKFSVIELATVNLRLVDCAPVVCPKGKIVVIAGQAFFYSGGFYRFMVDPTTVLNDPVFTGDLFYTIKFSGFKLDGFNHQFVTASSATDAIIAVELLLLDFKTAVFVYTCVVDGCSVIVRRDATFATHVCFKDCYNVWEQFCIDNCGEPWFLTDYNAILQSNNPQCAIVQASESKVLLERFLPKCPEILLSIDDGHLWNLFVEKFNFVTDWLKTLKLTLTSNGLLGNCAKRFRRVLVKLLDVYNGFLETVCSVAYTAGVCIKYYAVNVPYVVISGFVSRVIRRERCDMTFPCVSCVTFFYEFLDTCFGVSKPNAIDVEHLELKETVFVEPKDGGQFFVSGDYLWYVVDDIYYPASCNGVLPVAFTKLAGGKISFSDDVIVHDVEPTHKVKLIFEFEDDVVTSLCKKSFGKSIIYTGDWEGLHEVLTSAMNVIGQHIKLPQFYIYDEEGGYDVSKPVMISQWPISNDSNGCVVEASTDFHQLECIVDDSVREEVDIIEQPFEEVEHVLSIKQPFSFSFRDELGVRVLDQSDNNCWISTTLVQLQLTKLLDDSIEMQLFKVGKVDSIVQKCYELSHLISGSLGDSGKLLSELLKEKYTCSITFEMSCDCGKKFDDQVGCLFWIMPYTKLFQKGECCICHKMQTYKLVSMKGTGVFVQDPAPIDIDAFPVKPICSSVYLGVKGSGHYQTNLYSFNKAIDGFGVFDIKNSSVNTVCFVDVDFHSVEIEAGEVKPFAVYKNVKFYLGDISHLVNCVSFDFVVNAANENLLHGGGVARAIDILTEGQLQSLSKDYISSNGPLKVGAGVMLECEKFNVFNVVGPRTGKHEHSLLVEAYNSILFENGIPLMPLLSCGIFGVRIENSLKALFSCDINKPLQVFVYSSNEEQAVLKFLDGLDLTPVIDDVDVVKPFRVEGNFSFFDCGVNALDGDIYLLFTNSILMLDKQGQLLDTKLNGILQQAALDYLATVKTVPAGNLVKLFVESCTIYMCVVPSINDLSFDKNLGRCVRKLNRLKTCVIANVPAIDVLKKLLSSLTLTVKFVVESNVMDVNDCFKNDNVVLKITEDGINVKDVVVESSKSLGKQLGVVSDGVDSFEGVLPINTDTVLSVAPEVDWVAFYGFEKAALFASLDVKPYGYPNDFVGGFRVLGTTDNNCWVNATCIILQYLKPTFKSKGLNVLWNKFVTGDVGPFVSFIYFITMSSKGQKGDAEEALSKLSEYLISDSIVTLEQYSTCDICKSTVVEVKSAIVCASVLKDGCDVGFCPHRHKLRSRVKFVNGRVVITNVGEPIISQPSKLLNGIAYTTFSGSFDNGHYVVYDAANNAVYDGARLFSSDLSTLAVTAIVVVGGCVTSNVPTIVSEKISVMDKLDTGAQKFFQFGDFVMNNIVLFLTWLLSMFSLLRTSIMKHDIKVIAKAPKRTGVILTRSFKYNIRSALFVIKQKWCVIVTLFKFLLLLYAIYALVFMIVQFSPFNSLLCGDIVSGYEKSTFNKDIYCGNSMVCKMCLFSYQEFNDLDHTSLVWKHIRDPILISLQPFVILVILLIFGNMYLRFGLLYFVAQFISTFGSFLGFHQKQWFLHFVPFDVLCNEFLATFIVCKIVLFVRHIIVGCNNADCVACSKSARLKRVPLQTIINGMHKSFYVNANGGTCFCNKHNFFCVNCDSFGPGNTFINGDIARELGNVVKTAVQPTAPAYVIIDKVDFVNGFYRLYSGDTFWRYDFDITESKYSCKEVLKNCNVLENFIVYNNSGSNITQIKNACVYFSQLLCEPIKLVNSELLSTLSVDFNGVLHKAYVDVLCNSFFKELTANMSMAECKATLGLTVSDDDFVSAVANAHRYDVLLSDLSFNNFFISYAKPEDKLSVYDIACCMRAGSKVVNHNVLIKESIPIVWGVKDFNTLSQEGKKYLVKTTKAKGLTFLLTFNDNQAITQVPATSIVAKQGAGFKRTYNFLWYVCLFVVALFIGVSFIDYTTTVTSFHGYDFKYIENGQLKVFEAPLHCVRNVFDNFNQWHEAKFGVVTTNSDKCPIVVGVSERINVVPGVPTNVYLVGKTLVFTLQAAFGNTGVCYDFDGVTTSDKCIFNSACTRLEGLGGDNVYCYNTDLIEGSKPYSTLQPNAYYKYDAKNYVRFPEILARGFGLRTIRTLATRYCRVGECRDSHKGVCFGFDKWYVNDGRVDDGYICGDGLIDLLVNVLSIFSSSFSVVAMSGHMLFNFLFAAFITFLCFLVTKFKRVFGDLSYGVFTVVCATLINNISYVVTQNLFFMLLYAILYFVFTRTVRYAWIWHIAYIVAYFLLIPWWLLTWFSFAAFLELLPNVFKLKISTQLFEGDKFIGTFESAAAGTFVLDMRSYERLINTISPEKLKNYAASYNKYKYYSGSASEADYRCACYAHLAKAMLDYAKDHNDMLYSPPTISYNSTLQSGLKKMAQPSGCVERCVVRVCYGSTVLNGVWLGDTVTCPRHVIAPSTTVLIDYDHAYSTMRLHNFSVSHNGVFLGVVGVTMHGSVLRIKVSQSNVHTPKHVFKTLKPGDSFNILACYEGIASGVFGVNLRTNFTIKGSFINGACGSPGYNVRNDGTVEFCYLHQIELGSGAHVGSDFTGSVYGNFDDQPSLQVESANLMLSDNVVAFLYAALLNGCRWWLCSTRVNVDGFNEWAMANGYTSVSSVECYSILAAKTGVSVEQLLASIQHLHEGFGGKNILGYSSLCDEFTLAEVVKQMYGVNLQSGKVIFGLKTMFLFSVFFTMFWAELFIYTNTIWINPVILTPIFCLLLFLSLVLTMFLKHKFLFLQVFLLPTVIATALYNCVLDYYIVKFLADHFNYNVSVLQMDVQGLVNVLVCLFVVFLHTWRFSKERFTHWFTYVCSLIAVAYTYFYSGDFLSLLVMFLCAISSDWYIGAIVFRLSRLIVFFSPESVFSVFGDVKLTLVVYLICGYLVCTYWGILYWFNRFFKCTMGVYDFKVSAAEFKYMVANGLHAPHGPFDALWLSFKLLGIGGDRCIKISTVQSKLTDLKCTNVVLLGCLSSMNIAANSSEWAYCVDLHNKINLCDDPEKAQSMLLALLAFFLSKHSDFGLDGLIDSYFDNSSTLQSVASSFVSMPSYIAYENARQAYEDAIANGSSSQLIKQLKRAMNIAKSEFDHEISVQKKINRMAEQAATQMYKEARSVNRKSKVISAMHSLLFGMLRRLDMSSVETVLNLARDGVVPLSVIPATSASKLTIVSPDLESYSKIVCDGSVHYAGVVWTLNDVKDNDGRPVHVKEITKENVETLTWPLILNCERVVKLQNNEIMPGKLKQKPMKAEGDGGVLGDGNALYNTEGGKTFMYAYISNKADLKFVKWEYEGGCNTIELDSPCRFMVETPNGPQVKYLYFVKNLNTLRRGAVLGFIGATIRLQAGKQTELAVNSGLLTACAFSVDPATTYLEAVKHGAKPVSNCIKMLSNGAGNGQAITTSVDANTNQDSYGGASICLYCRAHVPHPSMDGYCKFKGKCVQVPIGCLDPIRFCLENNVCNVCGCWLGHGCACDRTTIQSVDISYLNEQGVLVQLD

SMILES	selectivity ratio [1]	inhibition [2] [%]	IC50 [3]	IC50 [4]	IC50 [5]	inhibition [6] [%]	CC50 [7] [µM]	inhibition [8] [%]	EC50 [9] [µM]	IC50 [10] [µM]
CC(=O)Nc1cccc(CNC(=O)C2CCN([C@H](C)c3cccc4ccccc34)CC2)c1	> 12	> 30	Not Active	Not Active	Not Active	< 10	> 100	10	8.3	> 100
C[C@H](c1cccc2ccccc12)N1CCC(C(=O)NCc2ccc(F)cc2)CC1	> 8.6		Not Active	Not Active	Not Active	< 10	> 100	< 10	11.6	> 100
C[C@H](c1cccc2ccccc12)N1CCC(C(=O)NCc2ccc3c(c2)OCO3)CC1		> 30	Not Active	Not Active	Not Active	< 10	> 100	< 10	12.8	> 100
C[C@H](c1cccc2ccccc12)N1CCC(C(=O)NCc2cccc(F)c2)CC1	> 18.5	> 30	Not Active	Not Active	Not Active	< 10	> 100	< 10	5.4	> 100

— ChEMBL document CHEMBL3232931 (J Med Chem, 2014)
